{"source": "paper PMC7693203", "about": "(Epilepsia, 2020)", "key": {"CYP3A4 [1]": {"biological_target": "T1, CYP3A4 (Homo sapiens, UniProt P08684)", "T1 sequence (P08684 whole entry)": "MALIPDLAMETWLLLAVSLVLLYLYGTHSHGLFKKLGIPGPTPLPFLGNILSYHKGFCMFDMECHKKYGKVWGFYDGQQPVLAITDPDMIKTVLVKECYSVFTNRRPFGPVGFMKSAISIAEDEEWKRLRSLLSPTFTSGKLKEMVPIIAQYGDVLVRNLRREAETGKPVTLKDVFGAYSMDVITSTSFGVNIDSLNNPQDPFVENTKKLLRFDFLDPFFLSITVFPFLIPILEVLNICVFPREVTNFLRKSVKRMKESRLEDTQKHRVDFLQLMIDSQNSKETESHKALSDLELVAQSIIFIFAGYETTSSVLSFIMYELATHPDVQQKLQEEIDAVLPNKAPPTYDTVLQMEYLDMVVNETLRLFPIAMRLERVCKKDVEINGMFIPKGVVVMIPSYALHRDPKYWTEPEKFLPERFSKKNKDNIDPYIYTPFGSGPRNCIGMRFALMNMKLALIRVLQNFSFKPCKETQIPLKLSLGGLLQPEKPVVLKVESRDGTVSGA"}, "[2]": {"conditions": "cited from earlier work; for decrease in AUCtau with concomitant CBD / decrease in C max with concomitant CBD: patients with epilepsy on stable VPA"}, "[3]": {"conditions": "healthy volunteers, cited from earlier work; for increase in AUCtau with concomitant CBD / increase in C max with concomitant CBD: steady-state ASD"}, "[4]": {"conditions": "patients with epilepsy on stable CLB; result in words; cited from earlier work"}, "CYP3A4 [5]": {"biological_target": "T1, CYP3A4", "assay": "clinical", "conditions": "in vivo"}, "[6]": {"conditions": "trial 17074; after CBD alone, during RIF treatment, or after CBD and RIF; of 16"}, "[7]": {"conditions": "cited from earlier work"}, "CYP3A4 [8]": {"biological_target": "T1, CYP3A4", "conditions": "result in words; cited from earlier work"}, "CYP2C19": {"biological_target": "CYP2C19 (Homo sapiens, UniProt P33261)", "sequence (P33261 whole entry)": "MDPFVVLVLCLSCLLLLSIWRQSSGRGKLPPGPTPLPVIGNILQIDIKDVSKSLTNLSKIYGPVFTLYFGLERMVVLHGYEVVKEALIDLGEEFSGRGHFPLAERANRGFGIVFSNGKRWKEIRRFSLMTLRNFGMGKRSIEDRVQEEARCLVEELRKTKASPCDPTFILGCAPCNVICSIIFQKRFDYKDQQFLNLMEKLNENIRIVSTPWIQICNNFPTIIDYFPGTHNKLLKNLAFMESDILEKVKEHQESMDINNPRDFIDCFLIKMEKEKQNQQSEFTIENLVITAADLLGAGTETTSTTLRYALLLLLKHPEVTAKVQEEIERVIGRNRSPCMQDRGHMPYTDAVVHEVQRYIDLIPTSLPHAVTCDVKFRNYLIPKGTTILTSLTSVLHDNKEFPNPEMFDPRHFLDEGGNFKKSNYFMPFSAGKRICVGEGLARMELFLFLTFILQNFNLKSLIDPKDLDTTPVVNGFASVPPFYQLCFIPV", "conditions": "result in words; cited from earlier work"}}, "note": "Where two headings read alike, the source gives them in different places. Marks after values point to notes of the source that are not given here.", "data": [{"molecule": "OCc1ncc2n1-c1ccc(Cl)cc1C(c1ccccc1F)=NC2", "note": "[1′‐OH‐MDZ, 1′‐hydroxymidazolam]", "values": [{"measurement": "t max", "setting": "CYP3A4 [1]; MDZ + CBD (steady-state CBD 750 mg BID), median (min‐max)", "value": "3.00 (0.50‐5.02) ^e h"}, {"measurement": "t ½", "setting": "CYP3A4 [1]; MDZ + placebo, MDZ 2.5 mg single dose, arithmetic mean (CV%)", "value": "6.11 (39.0) h"}, {"measurement": "t max", "setting": "CYP3A4 [1]; MDZ + placebo, median (min‐max)", "value": "0.50 (0.48‐1.55) ^d h"}, {"measurement": "increase in AUCtau with concomitant CBD", "setting": "CYP3A4 [1]; steady-state CBD", "value": 68, "unit": "%"}, {"measurement": "increase in C max with concomitant CBD", "setting": "CYP3A4 [1]; steady-state CBD", "value": 12, "unit": "%"}, {"measurement": "increase in t ½ with concomitant CBD", "setting": "CYP3A4 [1]; steady-state CBD", "value": 35, "unit": "%"}, {"measurement": "delay to t max, median of differences", "setting": "CYP3A4 [1]; with concomitant CBD, 90% CI = 1.00‐2.52", "value": 2.25, "unit": "h"}]}, {"molecule": "C=CCC(CCC)C(=O)O", "note": "(stereo not shown) [4‐ene‐VPA, 2‐propyl‐4‐pentenoic acid]", "values": [{"measurement": "decrease in AUCtau with concomitant CBD", "setting": "[2]", "value": 30, "unit": "%"}, {"measurement": "decrease in C max with concomitant CBD", "setting": "[2]", "value": 23, "unit": "%"}]}, {"molecule": "CN1C(=O)CC(=O)N(c2ccccc2)c2cc(Cl)ccc21", "note": "[CLB, clobazam]", "values": [{"measurement": "increase in AUCtau with concomitant CBD", "setting": "[3]", "value": 21, "unit": "%"}, {"measurement": "increase in C max with concomitant CBD", "setting": "[3]", "value": 20, "unit": "%"}, {"measurement": "effect of concomitant CBD on exposure", "setting": "[4]", "value": "no effect"}]}, {"molecule": "Cc1ncc2n1-c1ccc(Cl)cc1C(c1ccccc1F)=NC2", "note": "[MDZ, midazolam]", "values": [{"measurement": "t max", "setting": "CYP3A4 [1]; human, in vivo", "value": "1.00 (0.5‐3.00) h"}, {"measurement": "t ½", "setting": "CYP3A4 [1]; human, in vivo", "value": "4.53 (14.5) h"}, {"measurement": "t max", "setting": "CYP3A4 [5]; t max", "value": 0.5, "unit": "h"}, {"measurement": "half-life", "setting": "CYP3A4 [5]; t ½", "value": 4.99, "unit": "h"}]}, {"molecule": "CO[C@H]1/C=C/O[C@@]2(C)Oc3c(C)c(O)c4c(O)c(c(/C=N/N5CCN(C)CC5)c(O)c4c3C2=O)NC(=O)/C(C)=C\\C=C\\[C@H](C)[C@H](O)[C@@H](C)[C@@H](O)[C@@H](C)[C@H](OC(C)=O)[C@@H]1C", "note": "[RIF, rifampicin]", "values": [{"measurement": "healthy volunteers reporting AEs", "setting": "[6]", "value": 81, "unit": "%"}]}, {"molecule": "CC(C)(C)C(O)/C=C/c1ccc2c(c1)OCO2", "note": "(stereo not shown) [STP, stiripentol]", "values": [{"measurement": "increase in AUCtau with concomitant CBD", "setting": "[3]", "value": 55, "unit": "%"}, {"measurement": "increase in C max with concomitant CBD", "setting": "[3]", "value": 28, "unit": "%"}, {"measurement": "increase in AUCtau with concomitant CBD", "setting": "[2]; patients with epilepsy", "value": 30, "unit": "%"}, {"measurement": "increase in C max with concomitant CBD", "setting": "[2]; patients with epilepsy", "value": 17, "unit": "%"}, {"measurement": "Plasma protein binding (PPB)", "setting": "[7]", "value": 96.1, "unit": "%"}, {"measurement": "inhibition of CYP3A4", "setting": "CYP3A4 [8]", "value": "potent inhibitor"}, {"measurement": "inhibition of CYP2C19", "setting": "CYP2C19", "value": "potent inhibitor"}]}, {"molecule": "CCCC(CCC)C(=O)O", "note": "[VPA, valproate]", "values": [{"measurement": "effect of concomitant CBD on exposure", "setting": "[3]; result in words", "value": "no effect"}, {"measurement": "decrease in AUCtau with concomitant CBD", "setting": "[2]", "value": 17, "unit": "%"}, {"measurement": "decrease in C max with concomitant CBD", "setting": "[2]", "value": 13, "unit": "%"}, {"measurement": "PPB when VPA and CBD are combined in vitro", "setting": "[7]; result in words", "value": "not affected"}]}]}
